Data set [1] concerns UB/OC-1 cells. The data set can be described thus: Western blot of STAT1, STAT3 and JAK2 phosphorylation. It is filed as cell-based, mouse. A general note: Immunoblotting shows a protein as a band on a membrane.
A further data set has as its system ERK1/2. The data set can be described thus: ERK1/2 activation by western blotting. It is filed as cell-based, mouse. The following applies: 100 μM H2O2 or TNF-α 0.1 μg/ml.
In data set [2] the test system is UB/OC-1 cells. The data set can be described thus: Cell viability assay (MTS assay). The class given is cell-based. As to the method: The in vitro UB/OC1 cell proliferation was performed by using the CellTiter 96® AQueous One Solution Cell Proliferation Assay Kit (Promega, Madison, WI), according to the manufacturer's instructions. 3,500 cells were seeded per well into a 96-well plate. […] After 48 h, 20 μl of CellTiter 96 AQueous One Solution reagent was added to each well in 100 μl of total volume of media. Cells were incubated for 1 h, and recorded absorbance at 490 nm using an ELISA plate reader. The absorbance is directly proportional to the number of living cells and is expressed as a percent relative to vehicle-treated cells.
A general note: Formazan colour is commonly taken as a measure of viable cells.

The test system of another data set is UB/OC1 cells. The data set can be described thus: Cell death by TUNEL.
Data set [3] deals with UB/OC-1 cells. The data set can be described thus: Ca2+ imaging (Fluo-4AM) in UB/OC-1 cells. The class given is cell-based, mouse. The source says:
(§1) NE has been linked to immediate increase in ROS generation and persistent oxidative stress in the cochlea2, leading to generation of reactive oxygen species such as: hydroxyl […] (OH^−), superoxide anion (O^2—) and hydrogen peroxide (H2O2).

A further data set has as its target TRPV1 (Homo sapiens, UniProt Q8NER1). The data set can be described thus: Ca2+ imaging (Fluo-4AM) in HEKVR1 cells. The class given is cell-based.
Description: as §1

In the next data set the test system is Wistar rats. Nature of the data set: ABR threshold shifts, cisplatin-induced hearing loss. It is filed as in vivo, rat. As to the method:
Adult male Wistar rats (200-350 g) (from Envigo) were used for this study. Rats were housed in a temperature controlled room with a twelve hour light/dark cycle. They had free access to commercial food and water provided by the SIU Laboratory Animal Care facility.
Prior to experiments, rats were anesthetized with ketamine HCl/xylazine mixture (24.6/3 mg/kg) and then placed in a sound-attenuation chamber (Industrial Acoustic Company, Inc.). Body temperature of the rats was maintained at 37° C. with an animal blanket system. Pretreatment auditory brainstem responses (ABRs) was performed using an IHS-High-frequency System (Intelligent Hearing Systems, Miami, FL). The rats were exposed to acoustic stimuli via HIS transducers that were directly placed at the entrance of the ear canal. ABR thresholds were obtained for 5 ms duration tone bursts at 8, 16 and 32 kHz at a rate of 50/s. Thresholds were determined by visually produced lowest intensity evoked potentials (EP) that progressed in 10 dB steps. Evoked potentials (Eps) were amplified to 200,000×, and were band pass filtered (100-3000 Hz) and averaged over 1024 sweeps [Mukherjea et al., 2010].
At the end of auditory testing, the anesthetized animals were decapitated and the cochlea harvested. The SIU Laboratory Animal Care and Use Committee approved all animal procedures.
Male Wistar rats were anesthetized using ketamine/xylazine cocktail. The tympanic membrane was punctured as described in [Mukherjea et al., 2010].

Another data set has as its system UMSCC-10b cells. Nature of the data set: SCID mouse xenograft model. Particulars: single agent: cisplatin 2 mg/kg ip or oral capsaicin 0.5 mg/kg. The class given is in vivo. The procedure: SCID mice (from Envigo, 5-6 weeks of age) were injected subcutaneously with 1.5×10^6 mycoplasma-free UMSCC 10B cells in one flank. […] At the time of each treatment, tumor volumes were calculated based on the formula: volume=width2×(length/2) [Jajoo et al.]. Mice were killed 24 h after the eleventh treatment. All procedures were performed in accordance with relevant guidelines and regulations of SIU School of Medicine.

Data set [4] relates to rat cochlea. Nature of the data set: Cochlear gene expression by q-PCR (cisplatin study). It is filed as in vivo. The following applies: 72 h following cisplatin.
The subject of a further data set is outer hair cells (OHCs). The data set can be described thus: Outer hair cell damage by SEM and whole mount hair cell count. The following applies: basal turn, cisplatin. The class given is in vivo, rat. The source says: Immediately after completion of post-treatment ABRs, rats were euthanized and their cochleae were harvested and the specimens processed as described previously by [Kamimura et al.]. Sputter-coated cochlea were viewed and photographed with a Hitachi S-500 scanning electron microscope (Hitachi Ltd.). The resulting scanning electron micrographs were examined to determine qualitative morphological characteristics in various regions including the basal, middle, and apical turns of the rat cochlea.
Two representative areas of the basal turn, middle turn, and apex and hook portion were photographed. In each area, outer hair cells (OHCs) were counted in an area that was 10 pillar cell heads in length. The results are presented as the percentage hair cell damage per cochlear turn. At least three cochleae from different animals per treatment group were used.
To study the organization of the outer hair cells and inner hair cells, the cochlear whole mount technique was used. The cochleae was fixed in fresh 4% paraformaldehyde overnight, and then decalcified in […] EDTA for 2 weeks, (pH 7.3) while stirring at room temperature for 2 weeks. After decalcification, the cochleae was microdissected into basal, middle, and apical turns for whole-mount preparation.
For further processing, segments were washed with 1×PBS twice for 5 mins. For blocking, the segments were incubated in 10% blocking serum (horse serum) for 3 hrs at room temperature. The segments were incubated with primary antibody in 0.2% Triton prepared in PBS and refrigerated overnight. The following day, the segments were washed in PBS (three washes) for 5 mins each wash. The segments were washed in secondary antibody for 2 hrs at room temperature in the dark. The antibodies were then washed with PBS (three washes). Glass coverslips were then mounted on the segments with ProLong Diamond Antifade Mountant (Thermo Fisher Scientific) and incubated them at room temperature overnight and then stored them in 4 degrees. Images were procured using a Leica confocal microscope (Buffalo Grove, IL).
For hair cell count in whole mount preparations, two to three random areas from the basal turn from each treatment group separately were selected. Hair cells were counted in […] segments of the cochlea respectively. Counts were averaged across treatment group. This was further normalized as % of PBS (control) by taking the values of control as 100%.

Data set [5] concerns rat cochlea. The data set can be described thus: Immunolabelling of mid-modiolar cochlear sections, fluorescent intensity analyses. It is filed as in vivo. As to the method: Cochleae were perfused with a 4% paraformaldehyde solution, cochleae were decalcified for 7-10 days in 120 mM EDTA, embedded them in paraffin and then sectioned the specimens [Mukherjea et al., 2010]. Slides were deparaffined, rehydrated and then stained with primary and secondary antibodies. Glass coverslips were mounted on the specimens with ProLong Diamond mounting medium. Images were obtained using a Leica confocal microscope (Buffalo Grove, IL).
Image J software was used to analyze the mean gray area for the various images. These values were then used to quantify the increase or decrease in % fluorescence intensity of the various regions of the samples compared to control.

Where [6] appears, read: BCTC 100 nM 45 min then capsaicin 2.5 μM.
The mark [7] stands for this setting: TNF-α 0.1 μg/ml 60 seconds prior to 100 μM H2O2, till 5 minutes.
Where [8] appears, read: capsaicin 2.5 μM 30 min and/or cisplatin 2.5 μM 45 min (FIG. 5.E).

From patent US12162935B2, “Regimens, compositions and methods with capsaicin and TNF-alpha inhibitor” (priority 2018, dated 2024) come the findings set out here.

Chain of TRPV1 (Q8NER1 whole entry, species assumed): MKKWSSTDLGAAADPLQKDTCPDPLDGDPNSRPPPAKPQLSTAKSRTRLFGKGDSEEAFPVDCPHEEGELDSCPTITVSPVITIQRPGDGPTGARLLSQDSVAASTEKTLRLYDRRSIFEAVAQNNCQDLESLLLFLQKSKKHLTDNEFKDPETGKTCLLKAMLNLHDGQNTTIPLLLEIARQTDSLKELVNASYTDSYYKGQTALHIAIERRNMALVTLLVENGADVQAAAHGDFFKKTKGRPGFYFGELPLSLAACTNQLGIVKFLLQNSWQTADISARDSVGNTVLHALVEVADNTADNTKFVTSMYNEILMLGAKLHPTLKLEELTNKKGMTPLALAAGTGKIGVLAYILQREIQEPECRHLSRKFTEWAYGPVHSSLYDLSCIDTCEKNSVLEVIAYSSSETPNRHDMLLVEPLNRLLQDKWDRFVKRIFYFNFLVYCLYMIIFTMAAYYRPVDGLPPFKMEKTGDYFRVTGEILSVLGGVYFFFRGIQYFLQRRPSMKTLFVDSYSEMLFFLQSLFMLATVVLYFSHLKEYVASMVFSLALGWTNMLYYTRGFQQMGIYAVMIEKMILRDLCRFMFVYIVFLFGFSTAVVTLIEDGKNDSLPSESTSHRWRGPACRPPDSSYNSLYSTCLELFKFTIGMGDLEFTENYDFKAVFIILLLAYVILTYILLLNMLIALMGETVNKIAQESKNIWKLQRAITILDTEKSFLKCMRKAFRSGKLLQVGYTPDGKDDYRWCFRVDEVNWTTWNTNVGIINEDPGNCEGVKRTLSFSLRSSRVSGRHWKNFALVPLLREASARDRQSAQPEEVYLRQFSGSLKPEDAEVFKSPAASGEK
Description for UB/OC1 cells: UB/OC1 cells were treated with either scrambled siRNA or TRPV1 siRNA for 24 h.

For `CC(C)(C)c1ccc(NC(=O)N2CCN(c3ncccc3Cl)CC2)cc1` [BCTC, N-(4-tertiarybutylphenyl)-4-(3-chloropyridin-2-yl) tetrahydropyrazine-1(2H)-carbox-amide], in the data set on UB/OC-1 cells [1] (setting [6]), the “TRPV1 mediated STAT1-Ser^727 phosphorylation” value is on record as “decreases” and the “Tyr STAT3 phosphorylation” value was “without significantly altering”.

For `Cc1c(C(=O)NN2CCOCC2)nn(-c2ccc(Cl)cc2Cl)c1-c1ccc(I)cc1` [AM281], in the data set with UB/OC-1 cells [1], the “capsaicin-induced Ser^727 p-STAT1” value is “had no effect” and the “capsaicin-induced Tyr p-STAT3” value is given as “did not alter”.

For the compound `OO` [H2O2, hydrogen peroxide], the “time of highest ERK activation post treatment” value in the data set on ERK1/2 was determined as 60 min.

As for `O=[N+]([O-])c1ccc2c(c1)S(=O)(=O)C=C2` [STATTIC], the “Tyr^705 p-STAT3 levels” value in the data set on UB/OC-1 cells [1] (STATTIC 100 nM) is on record as “significantly reduced”. The cell death entry in the data set on UB/OC-1 cells [2] (STATTIC 100 nM alone) is recorded as “did not induce cell death”. Moreover, the “protective action of capsaicin against cisplatin-induced cell killing” value with UB/OC-1 cells [2] (STATTIC 100 nM pre-treatment) is given as “abrogated the protective action of capsaicin”.

With `CCCn1c(C)c(C(=O)c2cccc3ccccc23)c2ccccc21` [JWH015], in the data set with UB/OC-1 cells [1] (JWH015 10 μM 30 min), the p-STAT3 result is “increased p-STAT3”.

Take `COc1cccc(-c2cc(=O)c3ccccc3o2)c1N` [PD98059]: the “cell death/apoptosis by 100 μM H2O2” value in the data set on UB/OC1 cells is recorded as “significantly decreased cell death”. Moreover, the H2O2-induced calcium release result in the data set with UB/OC-1 cells [3] (10 μM PD98059 pre-treatment) and at TRPV1 (10 μM PD98059 pre-treatment) was “little or no calcium release” each time.

Take TNF-α: in the data set with ERK1/2, the “time of highest ERK activation post treatment” value stood at 30 min. In addition, the H2O2-induced calcium release result in the data set with UB/OC-1 cells [3] (setting [7]) and at TRPV1 (setting [7]) was “prolonged sustained calcium release” in each case.

Turning to `COc1ccc(C(=O)c2c(C)n(CCN3CCOCC3)c3cc(I)ccc23)cc1` [AM630], the ABR thresholds entry with Wistar rats (AM630 trans-tympanic alone or in combination with capsaicin) is given as “significant increases in ABR thresholds”. In addition, the “effect on capsaicin protection against cisplatin-induced hearing loss” value in the data set with Wistar rats (AM630 trans-tympanic before oral capsaicin 20 mg/kg and cisplatin) is reported as “reversed the protective effect of oral capsaicin”. In the data set with UB/OC-1 cells [1], the “capsaicin-induced Ser^727 p-STAT1” value was “significantly decreased” and the “capsaicin-induced Tyr p-STAT3” value is listed as “significantly decreased”. Moreover, in the data set with UB/OC-1 cells [1] (AM630 10 μM 30 min before JWH015), the “JWH015 increase of p-STAT3” value was “reversed”. Also, the “cell viability compared to capsaicin” value in the data set on UB/OC-1 cells [2] (AM630 30 minutes prior to capsaicin for 24 h) is on record as “significantly decreased cell viability”.

In the case of `N.N.[Cl][Pt][Cl]` [cisplatin], the “tumor growth (volume, size, weight)” value with UMSCC-10b cells was “significantly reduced”. Further, in the data set with rat cochlea [4], the “increases in TRPV1, NOX3 and INOS expression” value is listed as 2-3 fold. For the same compound, the “loss or damage of outer hair cells compared to vehicle controls” value with outer hair cells (OHCs) (SEM) is “ten-fold”. Further, the “outer hair cell death” value in the data set on outer hair cells (OHCs) (whole mount, myosin VIIa) worked out at 43±4%. For the same compound, the “CB2 labelling in the OHCs, SGs and SVA” value in the data set on rat cochlea [5] (single agent) is on record as “did not significantly change”. Besides, the “TRPV1, NOX3 and iNOS labelling in the OHCs, SG and SVA” value with rat cochlea [5] (single agent vs control) was “significantly increased”. Besides, the “Tyr p-STAT3” value in the data set on UB/OC-1 cells [1] (2.5 μM, at 120 minutes) is given as “sustained inhibition”. In addition, the JAK2 phosphorylation entry in the data set with UB/OC-1 cells [1] (2.5 μM, time course) was “persistent and significant reductions”. Further, in the data set with UB/OC-1 cells [1] (2.5 μM, up to 120 min), the “Ser^727 p-STAT1” value was “persistent increase”. In the data set with UB/OC-1 cells [1] (setting [8]), this compound gave a p-STAT1 of 120±2% and a p-STAT3 of 106.5±2.5%.
